Data taken from the supplement of paper PMC4862054.

Assays:
Settings in all cases: incubation time: 72 h
[1] = system: MDA-MB-468; test: normalised response (% of control), CellTiter-Glo; higher = more viable cells (100 = DMSO, 0 = benzethonium chloride kill control)
Protocol: (§1)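 DSRT, 72 h incubation, CellTox Green / CellTiter-Glo readout. Signal is normalised to DMSO and benzethonium chloride controls. Value is the normalised response at dose 3.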

[2] = system: MFM-223; test: as above
Protocol: as §1

[3] = system: HCC1599; test: as above
Protocol: as §1

[4] = system: BT-549; test: as above
Protocol: as §1

[5] = system: CAL-85-1; test: as above
Protocol: as §1

[6] = system: HDQ-P1; test: as above
Protocol: as §1

[7] = system: HCC1937; test: as above
Protocol: as §1

[8] = system: Hs578T; test: as above
Protocol: as §1

[9] = system: BT-474; test: as above
Protocol: as §1

[10] = system: CAL-120; test: as above
Protocol: as §1

[11] = system: CAL-148; test: as above
Protocol: as §1

[12] = system: HCC1143; test: as above
Protocol: as §1

[13] = system: DU-4475; test: as above
Protocol: as §1

[14] = system: MDA-MB-453; test: as above
Protocol: as §1

[15] = system: MDA-MB-231; test: as above
Protocol: as §1

[16] = system: MCF-10A; test: as above
Protocol: as §1

[17] = system: CAL-51; test: as above
Protocol: as §1

[18] = system: MDA-MB-436; test: as above
Protocol: as §1

[19] = system: SK-BR-3; test: as above
Protocol: as §1

[20] = system: MDA-MB-468; test: normalised response (% of control), CellTox Green; higher = less cell death (100 = DMSO, 0 = benzethonium chloride kill control)
Procedure, shortened: (§2)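 Plates were normalised with 0.1 % DMSO as 100 and a positive kill control as 0. Breast cancer cell lines in 20 µl suspension had been seeded into 384-well plates with compound at 5 concentrations in 10-fold steps over a compound-specific 10,000-fold range, incubated 72 h, and read for CellTox Green fluorescence (485/520 nm) followed by CellTiter-Glo luminescence. Each value is the normalised signal at a single concentration.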

[21] = system: MFM-223; test: as above
Procedure, shortened: as §2

[22] = system: HCC1599; test: as above
Procedure, shortened: as §2

[23] = system: BT-549; test: as above
Procedure, shortened: as §2

[24] = system: CAL-85-1; test: as above
Procedure, shortened: as §2

[25] = system: HDQ-P1; test: as above
Procedure, shortened: as §2

[26] = system: Hs578T; test: as above
Procedure, shortened: as §2

[27] = system: BT-474; test: as above
Procedure, shortened: as §2

[28] = system: CAL-120; test: as above
Procedure, shortened: as §2

[29] = system: CAL-148; test: as above
Procedure, shortened: as §2

[30] = system: HCC1143; test: as above
Procedure, shortened: as §2

[31] = system: DU-4475; test: as above
Procedure, shortened: as §2

[32] = system: MDA-MB-453; test: as above
Procedure, shortened: as §2

[33] = system: MDA-MB-231; test: as above
Procedure, shortened: as §2

[34] = system: MCF-10A; test: as above
Procedure, shortened: as §2

[35] = system: CAL-51; test: as above
Procedure, shortened: as §2

[36] = system: MDA-MB-436; test: as above
Procedure, shortened: as §2

[37] = system: HCC1937; test: as above
Procedure, shortened: as §2

SMILES	normalised response [1]	normalised response [2]	normalised response [3]	normalised response [4]	normalised response [5]	normalised response [6]	normalised response [7]	normalised response [8]	normalised response [9]	normalised response [10]	normalised response [11]	normalised response [12]	normalised response [13]	normalised response [14]	normalised response [15]	normalised response [16]	normalised response [17]	normalised response [18]	normalised response [19]	normalised response [20]	normalised response [21]	normalised response [22]	normalised response [23]	normalised response [24]	normalised response [25]	normalised response [26]	normalised response [27]	normalised response [28]	normalised response [29]	normalised response [30]	normalised response [31]	normalised response [32]	normalised response [33]	normalised response [34]	normalised response [35]	normalised response [36]	normalised response [37]
CC(=O)N(O)CCCCCNC(=O)CCC(=O)N(O)CCCCCNC(=O)CCC(=O)N(O)CCCCCN [Deferoxamine] (100 nM)	95.8%	93.5%	102%	100%	95%	101%	89.7%	101%	95%	99.2%	88.7%	99.1%	93.9%	84.4%	93.2%	96.8%	96.2%	102%	88.2%	114%	102%	92.5%	97.8%	104%	96.1%	94.9%	94.5%	103%	92.4%	102%	98.1%	102%	78.7%	90.1%	104%	95.5%	
CC[C@@H]1C(=O)OC[C@@H]1Cc1cncn1C [Pilocarpine] (400 nM)	95.3%	101%	85.9%	102%	97%	98.3%	96.7%	97.8%	94.5%	96.6%	86%	98.7%	97.7%	96.1%	94.1%	101%	63.4%	88.3%	89.7%	73.4%	99.6%	99.5%	93.4%	110%	91%		98.4%	98.8%	97.1%	104%	95.8%	93.6%	106%	98.6%	91.1%	70%	70.4%
C[C@]12CC[C@@H]3c4ccc(OC(=O)N(CCCl)CCCl)cc4CC[C@H]3[C@@H]1CC[C@@H]2O [Estramustine] (100 nM)	95.2%	91.4%	103%	104%	94.6%	102%	95.2%	93%	98.1%	101%	76.8%	100%	93.3%	83.1%	95.4%	88.2%	86.7%	98.4%	85.3%	97.9%	99.3%	91.3%	103%	95.6%	89.7%		95.8%	100%	102%	84.8%	96.8%	103%		83.8%	81%	83.2%	70.5%
Cc1sc2c(c1C)C(c1ccc(Cl)cc1)=N[C@@H](CC(=O)OC(C)(C)C)c1nnc(C)n1-2 [(+)JQ1] (100 nM)	89.3%	95%	97.3%	76%	88.8%	89.5%	85%	73.4%	86.2%	97.9%	117%	99.5%	93.5%	94.6%	94.8%	84.6%	106%	102%	92.8%	131%	103%	105%	95.7%	83.9%	96.3%	104%	79%	82.9%	98.3%	111%	101%	108%	96.2%	111%	101%	68.7%	
CC1=C2C[C@H]3[C@@H](CC=C4C[C@@H](O)CC[C@@]43C)[C@@H]2CC[C@]12O[C@@H]1C[C@H](C)CN[C@H]1[C@H]2C [Cyclopamine] (100 nM)	108%	109%	100%	95%	106%	99.9%	97.2%	105%	101%	104%	114%	104%	109%	122%	109%	106%	99.3%	99.7%	112%	88.8%	107%	104%	102%	94.5%	68.2%	95.4%	101%	99.6%	104%	115%	102%	97.4%	102%	94.2%	85.7%	86%	
Oc1ncnc2[nH]ncc12 [Allopurinol] (100 nM)	107%	109%	111%	91.4%	104%	101%	101%	105%	101%	103%	104%	106%	106%	110%	105%	104%	86.8%	99.5%	105%	92.2%	91.8%	104%	94.6%	109%	103%	103%	98.1%	103%	86.5%	113%	101%	102%	112%	89.3%	98.8%	102%	
CC1(C)CNc2cc(NC(=O)c3cccnc3NCc3ccncc3)ccc21 [Motesanib] (100 nM)	91.8%	93.8%	114%	99.7%	89.5%	99.5%	96.8%	96.3%	101%	99.9%	86.2%	95.4%	102%	99.8%	101%	92.5%	107%	96.9%	92.1%	93%	92.8%	103%	106%	110%	111%		99%	95.2%	94.2%	100%	97.9%	105%	101%	100%	107%	91.1%	99.2%
